# Source: US20260042764A1, “COMPOSITIONS AND METHODS FOR INHIBITION OF KRAS” (TheRas, Inc., priority 2022, published 2026)
# What was measured:
# [1] = target: T1, Avi-KRAS G12D (1-169) GppNHp/RAF1 RBD-3xFLAG (52-151) (Homo sapiens, UniProt P01116, G12D); test: Raf1-KRAS G12D-GppNHP disruption HTRF assay (Biological Example 1); type: binding
# T1 construct: Avi-KRAS G12D (1-169)
# Method in brief: (§1)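 Compound disruption of KRAS-GppNHp/RAF1 RBD binding read by HTRF after two sequential 1 h room-temperature incubations (protein mix, then detection reagents), shaken at 700 rpm. Buffer Tris pH 7.5 with MgCl2, BSA, Tween and 10% DMSO; results given as percent activity relative to DMSO (100%).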
# [2] = target: T2, Avi-KRAS G12V (1-169) GppNHp/RAF1 RBD-3xFLAG (52-151) (Homo sapiens, UniProt P01116, G12V); test: Raf1-KRAS G12V-GppNHP disruption HTRF assay (Biological Example 1); type: binding
# T2 construct: Avi-KRAS G12V (1-169)
# Method in brief: as §1
# [3] = target: T3, Avi-KRAS G12R (1-169) GppNHp/RAF1 RBD-3xFLAG (52-151) (Homo sapiens, UniProt P01116, G12R); test: Raf1-KRAS G12R-GppNHP disruption HTRF assay (Biological Example 1); type: binding
# T3 construct: Avi-KRAS G12R (1-169)
# Method in brief: as §1
# SW620 cells (KRAS G12V) = test: Cell-based pERK HTRF assay in SW620 cell (Biological Example 4); details: Homo sapiens, SW-620, SW620 (KRAS G12V) cells, pERK HTRF
# Method in brief: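 SW620 seeded in RPMI/10% FBS, next day dosed 4 h (top 1 μM, half-log, 9 pts, 0.25% DMSO). Lysed, pERK by d2/Eu cryptate HTRF, 4–24 h RT, 615 nm read.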
# [4] = target: T4, Avi-KRAS WT (1-169) GppNHp/RAF1 RBD-3xFLAG (52-151) (Homo sapiens, UniProt P01116); test: Raf1-KRAS WT-GppNHP disruption HTRF assay (Biological Example 1); type: binding
# T4 construct: Avi-KRAS WT (1-169)
# Method in brief: as §1
# GP2d cells (KRAS G12D) = test: Cell-based pERK HTRF assay in GP2d cell (Biological Example 2); details: GP2d, GP2d (KRAS G12D) cells, pERK HTRF
# Method in brief: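 HTRF read-out of pERK (excitation 320 nm, emission 615 nm) after lysates sat 4–24 h at room temperature with Eu cryptate and d2 antibodies.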
# [5] = KRAS G12D, GppNHp-loaded, class symbols
# [6] = KRAS G12V, GppNHp-loaded, class symbols
# [7] = KRAS G12R, GppNHp-loaded, class symbols
# [8] = KRAS WT, GppNHp-loaded, class symbols
# T1 sequence (P01116 1-169 isoform P01116-2 G12D): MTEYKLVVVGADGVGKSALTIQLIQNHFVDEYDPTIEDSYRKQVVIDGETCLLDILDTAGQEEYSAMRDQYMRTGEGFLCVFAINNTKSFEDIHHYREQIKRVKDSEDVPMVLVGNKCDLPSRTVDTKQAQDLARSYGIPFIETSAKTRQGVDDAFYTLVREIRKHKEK
# T2 sequence (P01116 1-169 isoform P01116-2 G12V): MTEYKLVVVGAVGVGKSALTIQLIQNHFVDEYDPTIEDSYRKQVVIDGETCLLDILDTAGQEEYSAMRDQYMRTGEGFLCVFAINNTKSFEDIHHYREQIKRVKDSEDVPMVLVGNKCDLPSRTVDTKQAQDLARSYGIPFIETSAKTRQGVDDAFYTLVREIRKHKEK
# T4 sequence (P01116 1-169 isoform P01116-2): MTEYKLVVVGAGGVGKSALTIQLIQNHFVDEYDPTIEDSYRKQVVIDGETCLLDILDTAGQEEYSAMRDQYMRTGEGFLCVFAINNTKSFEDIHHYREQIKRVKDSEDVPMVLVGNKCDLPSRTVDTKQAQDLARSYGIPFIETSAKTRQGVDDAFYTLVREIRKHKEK
# T3 sequence (P01116 1-169 isoform P01116-2 G12R): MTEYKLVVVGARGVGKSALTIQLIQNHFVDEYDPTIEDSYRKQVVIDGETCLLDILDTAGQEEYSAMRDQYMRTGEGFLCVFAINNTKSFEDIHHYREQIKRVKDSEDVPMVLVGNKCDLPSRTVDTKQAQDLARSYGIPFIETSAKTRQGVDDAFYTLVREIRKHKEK
Compound,IC50 ([1]; KRAS G12D-GppNHp/RAF1 RBD HTRF) [nM],IC50 ([2]; KRAS G12V-GppNHp/RAF1 RBD HTRF) [nM],IC50 ([3]; KRAS G12R-GppNHp/RAF1 RBD HTRF) [nM],IC50 (SW620 cells (KRAS G12V)) [nM],IC50 ([4]; KRAS WT-GppNHp/RAF1 RBD HTRF) [nM],IC50 (GP2d cells (KRAS G12D)) [nM],"IC50 [1, 5] [nM]","IC50 [2, 6] [nM]","IC50 [3, 7] [nM]",IC50 (SW620 cells (KRAS G12V); class symbols) [nM],"IC50 [4, 8] [nM]",IC50 (GP2d cells (KRAS G12D); class symbols) [nM]
N#Cc1c(N)sc2c(F)ccc(-c3c(C(F)(F)F)cc4c(N5CCCCCC5)nc(OC[C@@]56CCCN5C[C@H](F)C6)nc4c3F)c12 [Compound 305],100 to 1000,100 to 1000,100 to 1000,< 100,100 to 1000,< 100,–,–,–,–,–,–
CC(C)C(=O)N1CC[C@@](C)(N(C)c2nc(OC[C@@]34CCCN3C[C@H](F)C4)nc3c(F)c(-c4ccc(F)c5sc(N)c(C#N)c45)c(C(F)(F)F)cc23)[C@H]1C [Compound 345],1000 to 10000,> 10000,> 10000,100 to 1000,1000 to 10000,100 to 1000,–,–,–,–,–,–
N#Cc1c(N)sc2c(F)ccc(-c3c(C(F)(F)F)cc4c(N5CCC[C@@H](CO)C5)nc(OC[C@@]56CCCN5C[C@H](F)C6)nc4c3F)c12 [Compound 316],100 to 1000,1000 to 10000,100 to 1000,< 100,100 to 1000,< 100,–,–,–,–,–,–
N#Cc1c(N)sc2c(F)ccc(-c3c(C(F)(F)F)cc4c(N5CC6CC(C5)O6)nc(OC[C@]56C[C@@H](F)CN5CC5(CC5)C6)nc4c3F)c12 [Compound 594],–,–,–,–,–,–,1000 to 10000,1000 to 10000,1000 to 10000,< 100,1000 to 10000,< 100
N#Cc1c(N)sc2c(F)ccc(-c3c(C(F)(F)F)cc4c(N5CC6CC(C5)O6)nc(OC[C@@]56CCCN5C[C@@]5(CC5(F)F)C6)nc4c3F)c12 [Compound 366],100 to 1000,1000 to 10000,1000 to 10000,< 100,100 to 1000,< 100,–,–,–,–,–,–
CN(c1nc(OC[C@@]23CCCN2C[C@H](F)C3)nc2c(F)c(-c3ccc(F)c4sc(N)c(C#N)c34)c(C(F)(F)F)cc12)[C@H]1CCCOC1 [Compound 280],100 to 1000,100 to 1000,100 to 1000,< 100,100 to 1000,< 100,–,–,–,–,–,–

# Further lines, results first:
IC50 ([1]; KRAS G12D-GppNHp/RAF1 RBD HTRF) [nM],IC50 ([2]; KRAS G12V-GppNHp/RAF1 RBD HTRF) [nM],IC50 ([3]; KRAS G12R-GppNHp/RAF1 RBD HTRF) [nM],IC50 (SW620 cells (KRAS G12V)) [nM],IC50 ([4]; KRAS WT-GppNHp/RAF1 RBD HTRF) [nM],IC50 (GP2d cells (KRAS G12D)) [nM],"IC50 [1, 5] [nM]","IC50 [2, 6] [nM]","IC50 [3, 7] [nM]",IC50 (SW620 cells (KRAS G12V); class symbols) [nM],"IC50 [4, 8] [nM]",IC50 (GP2d cells (KRAS G12D); class symbols) [nM],Compound
100 to 1000,1000 to 10000,1000 to 10000,< 100,1000 to 10000,< 100,–,–,–,–,–,–,CN(C)C(=O)[C@@H]1CN(c2nc(OC[C@@]34CCCN3C[C@H](F)C4)nc3c(F)c(-c4ccc(F)c5sc(N)c(C#N)c45)c(C(F)(F)F)cc23)CCO1 [Compound 472]
–,–,–,–,–,–,< 100,< 100,< 100,< 100,< 100,< 100,"CCN(c1nc(OC[C@@]23CCCN2C[C@H](F)C3)nc2c(F)c(-c3ccc(F)c4sc(N)c(C#N)c34)c(C(F)(F)F)cc12)[C@@H]1CN2C(=O)OC[C@]2(C)C1 (atropisomer, axis not shown) [Compound 795]"
–,–,–,–,–,–,100 to 1000,100 to 1000,100 to 1000,< 100,100 to 1000,< 100,"CCN(c1nc(OC[C@@]23CCCN2C[C@H](F)C3)nc2c(F)c(-c3ccc(F)c4sc(N)c(C#N)c34)c(C(F)(F)F)cc12)[C@H]1C[C@@H](C)N(C(=O)N2CC(OC)C2)C1 (atropisomer, axis not shown) [Compound 734]"
–,–,–,–,–,–,< 100,< 100,< 100,< 100,< 100,< 100,"CCN(c1nc(OC[C@@]23CCCN2C[C@H](F)C3)nc2c(F)c(-c3ccc(F)c4sc(N)c(C#N)c34)c(C(F)(F)F)cc12)[C@H]1CCN(C(=O)c2ccnn2C)C1 (atropisomer, axis not shown) [Compound 723]"
< 100,< 100,< 100,< 100,100 to 1000,< 100,–,–,–,–,–,–,"CCN(c1nc(OC[C@@]23CCCN2C[C@H](F)C3)nc2c(F)c(-c3ccc(F)c4sc(N)c(C#N)c34)c(C(F)(F)F)cc12)[C@H]1C[C@H](C)N(C(=O)N(C)C)C1 (atropisomer, axis not shown) [Compound 521]"
